How the values were obtained:
Type in all cases: physicochemical
[1] = Absorption spectra of absorption membrane before and after high temperature/high humidity evaluation (Test Example 2); conditions: 85% relative humidity, 120 hours; for ΔA = 100×(Af−Ai)/Ai / Δλ = 100×(λf−λi)λi: 85° C.; for Af, transmittance at the absorption maximum wavelength / λf, absorption maximum wavelength: absorption membrane after 85° C.; for Ai, transmittance at the absorption maximum wavelength / λi, absorption maximum wavelength: absorption membrane before 85° C.
Excerpt: FIGS. 4 to 6 are the absorption spectra of the absorption membranes prepared in Test Example 1 using the absorbents of Embodiments 1 to 3, respectively. FIGS. 7 to 9 are the absorption spectrum of the absorption membrane prepared in Test Example using the absorbents of Comparative Examples 1 to 3, respectively. In the FIGS., the spectra indicated before reliability is the result immediately after preparing the absorption membrane, and the spectra indicated after reliability is the result after high temperature/high humidity evaluation was performed on the absorption membrane. The high temperature/high humidity evaluation is an evaluation where the absorption membrane is maintained at a temperature of 85° C. under a relative humidity of 85% for 120 hours. In Tables 4 and 5, Af is the transmittance at the absorption maximum wavelength of the absorption membrane maintained at 85° C. under 85% relative humidity for 120 hours and λf is the absorption maximum wavelength for after case. Ai is the transmittance at the absorption maximum wavelength of the absorption membrane before being maintained at 85° C. under 85% relative humidity for 120 hours and λi is the absorption maximum wavelength for before case. In Tables 4 and 5, ΔA is a value calculated as 100×(Af−Ai)/Ai, and Δλ is a value calculated as 100×(λf−λi)λi.

[2] = Pyrolysis temperature (Td 5%) analysis by TGA; conditions: 25-800° C., 10° C./min, N2
Experimental: The Td 5% is a value obtained through TGA (Thermogravimetric Analysis) analysis. It is the value (Td 5%) at a weight loss of 5% confirmed under the conditions of a temperature range of 25° C. to 800° C., a temperature increase rate of 10° C./min, and a nitrogen (N2) atmosphere of 60 cm^3/min.
Thermogravimetric Analysis (TGA) of the chemical compound was performed by using Scinco's TGA N-1000 equipment. The analysis was performed by using approximately 3 mg of sample (chemical compound) and the analysis was conducted under conditions of a temperature range of 25° C. to 800° C., a temperature increase rate of 10° C./min, and nitrogen (N2) atmosphere of 60 cm^3/min. The value at […] (Td 5%) was used as the Td decomposition temperature.

[3] = Transmittance of absorption membrane before and after reliability evaluation (Test Example 1); conditions: for 425~465 nm Tave, Δ / 425~465 nm Tmin, Δ / 466~480 nm Tave, Δ / 466~480 nm Tmin, Δ / 480~560 nm Tave, Δ / λmax Tmax (transmittance at the absorption maximum), Δ: change before/after 85° C.; for 425~465 nm Tave, Δ / 425~465 nm Tmin, Δ / 466~480 nm Tave, Δ / 466~480 nm Tmin, Δ / 480~560 nm Tave, Δ / λmax Tmax (transmittance at the absorption maximum), Δ / 425~465 nm Tave, A / 425~465 nm Tmin, A / 466~480 nm Tave, A / 466~480 nm Tmin, A / 480~560 nm Tave, A: 85% RH, 120 hours; for 425~465 nm Tave, B / 425~465 nm Tmin, B / 466~480 nm Tave, B / 466~480 nm Tmin, B / 480~560 nm Tave, B: silicone resin membrane about 6 μm, before reliability evaluation; for 425~465 nm Tave, A / 425~465 nm Tmin, A / 466~480 nm Tave, A / 466~480 nm Tmin, A / 480~560 nm Tave, A: silicone resin membrane, after 85° C.
Experimental: The transmittance spectrum was measured using a spectrophotometer (Manufacturer: Perkinelmer, Product Name: Lambda 750 Spectrophotometer) on a specimen obtained by cutting the measurement object (e.g., an absorption membrane) so that the width and height were 10 mm and 10 mm, respectively. The transmittance spectrum was measured for each wavelength according to the equipment manual. The specimen was placed on a straight line between a measuring beam of the spectrophotometer and a detector and the transmittance spectrum was confirmed by setting the incident angle of the measuring beam to 0°. The incident angle of 0° is a direction substantially parallel to the surface normal direction of the specimen. The average transmittance within a certain wavelength range in the transmittance spectrum is the result of measuring the transmittance at each wavelength while increasing the wavelength by 1 nm starting from the shortest wavelength in the wavelength range, and then calculating the arithmetic average of the measured transmittances. The maximum transmittance is the maximum transmittance among the transmittances measured while increasing the wavelength by 1 nm and the minimum transmittance is the minimum transmittance among the transmittances measured while increasing the wavelength by 1 nm. For example, the average transmittance within the wavelength range of 350 nm to 360 nm is the arithmetic mean of the transmittance measured at the wavelength of 350 nm, 351 nm, 352 nm, 353 nm, 354 nm, 355 nm, 356 nm, 357 nm, 358 nm, 359 nm, and 360 nm. The maximum transmittance within the wavelength range of 350 nm to 360 nm is the highest transmittance measured at wavelengths of 350 nm, 351 nm, 352 nm, 353 nm, 354 nm, 355 nm, 356 nm, 357 nm, 358 nm, 359 nm and 360 nm and the minimum transmittance within the wavelength range of 350 nm to 360 nm is the lowest transmittance among the transmittances measured at wavelengths of 350 nm, 351 nm, 352 nm, 353 nm, 354 nm, 355 nm, 356 nm, 357 nm, 358 nm, 359 nm, and 360 nm.
A coating solution was prepared by mixing silicone resin (Dow Chemical, RSN-0217), absorbent, and solvent (cyclohexanone) as resin components. The mixing ratio of the resin component, absorbent, and solvent was set to be 69.3:0.99:29.7 in weight ratio (resin:absorbent:solvent).
The coating solution was coated on a transparent substrate (a glass substrate manufactured by SCHOTT) and maintained at 140° C. for about 2 hours to form an absorption membrane with a thickness of about 6 μm.
Tables 2 and 3 below summarize the transmittance of the absorption membrane before and after reliability evaluation in the ultraviolet and near-infrared regions. The reliability evaluation is an evaluation of maintaining the absorption membrane at 85° C. and under 85% relative humidity condition for 120 hours. In Table 2, B refers to the result before performing the reliability evaluation and A refers to the result after performing the reliability evaluation. Additionally, in Table 2, λmax means the transmittance at the absorption maximum.
In Tables 2 and 3, Δ is the rate of change (%) of each characteristic before and after the reliability evaluation, calculated as 100×[…]/B, where […], B is the value indicated by B in Table 2. In Table 2, Tmax refers to the highest transmittance within the corresponding wavelength region, Tave refers to the average transmittance within the corresponding wavelength region, and Tmin refers to the minimum transmittance within the corresponding wavelength region.

[4] = Absorption maximum measurement; conditions: chloroform, about 10^-5 M
Experimental: The maximum absorption was evaluated by a conventional method. Specifically, the sample was dissolved in chloroform solvent at a concentration of about 10^−5 M and then evaluated using measuring equipment (Agilent, Varian Cary 4000).

[5] = Solubility of the absorbent in methylene chloride; conditions: room temperature (about 25° C.)
Experimental: The solubility of the absorbent was evaluated. Solubility was determined based on the following criteria by evaluating the solubility of the absorbent in the solvent (MC, Methylene Chloride) at room temperature (about 25° C.).

Row | SMILES | ΔA = 100×(Af−Ai)/Ai [1] [%] | Δλ = 100×(λf−λi)λi [1] [%] | Af, transmittance at the absorption maximum wavelength [1] [%] | λf, absorption maximum wavelength [1] [nm] | Ai, transmittance at the absorption maximum wavelength [1] [%] | λi, absorption maximum wavelength [1] [nm] | Td 5% [2] [°C] | 425~465 nm Tave, Δ [3] [%] | 425~465 nm Tmin, Δ [3] [%] | 466~480 nm Tave, Δ [3] [%] | 466~480 nm Tmin, Δ [3] [%] | 480~560 nm Tave, Δ [3] [%] | λmax Tmax (transmittance at the absorption maximum), Δ [3] [%] | 425~465 nm Tave, B [3] [%] | 425~465 nm Tmin, B [3] [%] | 466~480 nm Tave, B [3] [%] | 466~480 nm Tmin, B [3] [%] | 480~560 nm Tave, B [3] [%] | 425~465 nm Tave, A [3] [%] | 425~465 nm Tmin, A [3] [%] | also measured
1 | CC1(C)C(/C=C/C=C/C=C/C=C2\N(C[Si](C)(C)C)c3ccccc3C2(C)C)=[N+](C[Si](C)(C)C)c2ccccc21 [Embodiment 1] | 6.6 | 0 | 12.3 | 758 | 11.5 | 758 | 231 | 0 | 0.1 | 0 | 0 | 0 | 0.8 | 89.7 | 87.9 | 91.1 | 90.7 | 91.4 | 89.8 | 88 | 466~480 nm Tave, A [3]: 91.1%; 466~480 nm Tmin, A [3]: 90.7%; 480~560 nm Tave, A [3]: 91.4%; Maximum Absorption Wavelength [4]: 763 nm
2 | CCCCN1\C(=C/C=C/C=C/C=C/C2=[N+](CCCC)c3ccc4ccccc4c3C2(C)C)C(C)(C)c2c1ccc1ccccc21 [Comparative Example 2] | 27.1 | 13 | 59.8 | 785 | 47.1 | 784 | 211 | 0 | −0.2 | 0.1 | −0.1 | −0.3 | 12.8 | 89.6 | 88.9 | 90.2 | 89.8 | 91.2 | 89.6 | 88.7 | Solubility [5]: A (When solubility is 1 mass % or more); 466~480 nm Tave, A [3]: 90.2%; 466~480 nm Tmin, A [3]: 89.7%; 480~560 nm Tave, A [3]: 90.9%; Maximum Absorption Wavelength [4]: 801 nm
3 | CC1(C)C(/C=C/C2=C(Cl)C(=C/C=C3\N(C[Si](C)(C)C)c4ccccc4C3(C)C)/CC2)=[N+](C[Si](C)(C)C)c2ccccc21 [Embodiment 3] | 6.7 | 0 | 12.3 | 823 | 11.5 | 82. | 216 | 0.1 | 0.1 | 0.1 | 0.1 | 0. | 0.8 | 87.8 | 86.8 | 89.4 | 88.1 | 91 | 87.9 | 87 | 466~480 nm Tave, A [3]: 89.5%; 466~480 nm Tmin, A [3]: 88.2%; 480~560 nm Tave, A [3]: 91%; Maximum Absorption Wavelength [4]: 817 nm
4 | CC1(C)C(/C=C/C=C/C=C/C=C2\N(C[Si](C)(C)C)c3ccc4ccccc4c3C2(C)C)=[N+](C[Si](C)(C)C)c2ccc3ccccc3c21 [Embodiment 2] | 4.2 | 0 | 34.9 | 790 | 33.5 | 790 | 230 | 0.1 | 0.1 | 0 | 0.1 | 0 | 1.4 | 89.5 | 88.6 | 90.3 | 89.8 | 91.3 | 89.5 | 88.7 | 466~480 nm Tave, A [3]: 90.3%; 466~480 nm Tmin, A [3]: 89.8%; 480~560 nm Tave, A [3]: 91.3%; Maximum Absorption Wavelength [4]: 803 nm

From patent US20250197641A1, “OPTICAL ABSORBENT” (priority 2023, published 2025)
